Measured values taken from ChEMBL document CHEMBL1201862, “PubChem BioAssay data set” (2004).
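Results reflect a 48-hour exposure of cells in 96-well plates to compound at five concentrations. GI50 = concentration required for 50% inhibition of growth.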 Calls of active or inactive are those of the source. No stated cut-off is given here; in the data, active = GI50 up to about 1.1 µM and inactive = higher.

How the values were obtained:
Experiment in all cases: NCI anticancer screen, dose series, 48 h
786-0 = test system: 786-0
A498 = test system: A498
A549 = test system: A549
ACHN = test system: ACHN
BT-549 = test system: BT-549
CAKI-1 = test system: CAKI-1
COLO 205 = test system: COLO 205
DU-145 = test system: DU-145
EKVX = test system: EKVX
HCT-116 = test system: HCT-116
HCT-15 = test system: HCT-15
HL-60 = test system: HL-60
HOP-62 = test system: HOP-62
HOP-92 = test system: HOP-92
HT-29 = test system: HT-29
Hs-578T = test system: Hs-578T
IGROV-1 = test system: IGROV-1
K562 = test system: K562
KM12 = test system: KM12
LOX IMVI = test system: LOX IMVI
M14 = test system: M14
MCF7 = test system: MCF7
MDA-MB-231 = test system: MDA-MB-231
MDA-MB-435 = test system: MDA-MB-435
MDA-N = test system: MDA-N
MOLT-4 = test system: MOLT-4
Malme-3M = test system: Malme-3M
NCI-H226 = test system: NCI-H226
NCI-H23 = test system: NCI-H23
NCI-H522 = test system: NCI-H522
NCI/ADR-RES = test system: NCI/ADR-RES
OVCAR-3 = test system: OVCAR-3
OVCAR-4 = test system: OVCAR-4
OVCAR-5 = test system: OVCAR-5
OVCAR-8 = test system: OVCAR-8
PC-3 = test system: PC-3
RPMI-8226 = test system: RPMI-8226
RXF 393 = test system: RXF 393
SF-268 = test system: SF-268
SF-295 = test system: SF-295
SF-539 = test system: SF-539
SK-MEL-28 = test system: SK-MEL-28
SK-MEL-2 = test system: SK-MEL-2
SK-MEL-5 = test system: SK-MEL-5
SK-OV-3 = test system: SK-OV-3
SN12C = test system: SN12C
SNB-19 = test system: SNB-19
SR = test system: SR
SW-620 = test system: SW-620
T47D = test system: T47D
TK-10 = test system: TK-10
U-251 = test system: U-251
UACC-257 = test system: UACC-257
UACC-62 = test system: UACC-62
UO-31 = test system: UO-31
CCRF-CEM = test system: CCRF-CEM
HCC 2998 = test system: HCC 2998
NCI-H460 = test system: NCI-H460
SNB-75 = test system: SNB-75

CN1C(=O)C23CCCCC2CC1(c1ccccc1)S3 (stereo not drawn)
GI50 (786-0): > 100 µM (inactive)
GI50 (A498): > 100 µM (inactive)
GI50 (A549): 64.7 µM (inactive)
GI50 (ACHN): > 100 µM (inactive)
GI50 (BT-549): 99.3 µM (inactive)
GI50 (CAKI-1): 68.2 µM (inactive)
GI50 (COLO 205): 71.9 µM (inactive)
GI50 (DU-145): > 100 µM (inactive)
GI50 (EKVX): > 100 µM (inactive)
GI50 (HCT-116): 60.3 µM (inactive)
GI50 (HCT-15): 80 µM
GI50 (HL-60): 35.7 µM (inactive)
GI50 (HOP-62): > 100 µM (inactive)
GI50 (HOP-92): 60.7 µM (inactive)
GI50 (HT-29): 73.8 µM (inactive)
GI50 (Hs-578T): 99.1 µM (inactive)
GI50 (IGROV-1): > 100 µM (inactive)
GI50 (K562): 71.1 µM (inactive)
GI50 (KM12): > 100 µM (inactive)
GI50 (LOX IMVI): 79.8 µM (inactive)
GI50 (M14): > 100 µM (inactive)
GI50 (MCF7): 78.2 µM (inactive)
GI50 (MDA-MB-231): 71.1 µM (inactive)
GI50 (MDA-MB-435): > 100 µM (inactive)
GI50 (MDA-N): > 100 µM (inactive)
GI50 (MOLT-4): 38.3 µM (inactive)
GI50 (Malme-3M): > 100 µM (inactive)
GI50 (NCI-H226): > 100 µM (inactive)
GI50 (NCI-H23): 66.8 µM (inactive)
GI50 (NCI-H522): 76.2 µM (inactive)
GI50 (NCI/ADR-RES): 38.5 µM (inactive)
GI50 (OVCAR-3): 50.9 µM (inactive)
GI50 (OVCAR-4): 34.2 µM (inactive)
GI50 (OVCAR-5): > 100 µM (inactive)
GI50 (OVCAR-8): > 100 µM (inactive)
GI50 (PC-3): 44.1 µM (inactive)
GI50 (RPMI-8226): 49.8 µM (inactive)
GI50 (RXF 393): 59.2 µM (inactive)
GI50 (SF-268): > 100 µM (inactive)
GI50 (SF-295): 65.3 µM (inactive)
GI50 (SF-539): > 100 µM (inactive)
GI50 (SK-MEL-28): > 100 µM (inactive)
GI50 (SK-MEL-2): 47.5 µM (inactive)
GI50 (SK-MEL-5): 72.3 µM (inactive)
GI50 (SK-OV-3): > 100 µM (inactive)
GI50 (SN12C): 94.4 µM (inactive)
GI50 (SNB-19): > 100 µM (inactive)
GI50 (SR): 58.5 µM (inactive)
GI50 (SW-620): > 100 µM (inactive)
GI50 (T47D): 42.6 µM (inactive)
GI50 (TK-10): 41.2 µM (inactive)
GI50 (U-251): 77.4 µM (inactive)
GI50 (UACC-257): 18.3 µM (inactive)
GI50 (UACC-62): > 100 µM (inactive)
GI50 (UO-31): 63 µM (inactive)

COC(=O)c1c(OC(C)=O)ccc2c1c1c(OC(C)=O)c3ccccc3c(OC(C)=O)c1n2C
GI50 (786-0): 26.4 µM (inactive)
GI50 (A549): 29.9 µM (inactive)
GI50 (ACHN): 15.4 µM (inactive)
GI50 (BT-549): 21.8 µM (inactive)
GI50 (CAKI-1): 17.8 µM (inactive)
GI50 (CCRF-CEM): 23.2 µM (inactive)
GI50 (COLO 205): 29.2 µM (inactive)
GI50 (DU-145): 19.9 µM (inactive)
GI50 (EKVX): 10.1 µM (inactive)
GI50 (HCC 2998): 23.7 µM (inactive)
GI50 (HCT-116): 19.1 µM (inactive)
GI50 (HCT-15): 27.9 µM
GI50 (HL-60): 22.1 µM (inactive)
GI50 (HOP-62): 24.4 µM (inactive)
GI50 (HOP-92): 4.39 µM (inactive)
GI50 (HT-29): 38.4 µM (inactive)
GI50 (Hs-578T): 18.3 µM (inactive)
GI50 (IGROV-1): 7.87 µM (inactive)
GI50 (K562): 19.2 µM (inactive)
GI50 (KM12): 20.5 µM (inactive)
GI50 (M14): 27.6 µM (inactive)
GI50 (MCF7): 28.7 µM (inactive)
GI50 (MDA-MB-231): 31.5 µM (inactive)
GI50 (MDA-MB-435): 37.8 µM (inactive)
GI50 (MDA-N): 32.2 µM (inactive)
GI50 (MOLT-4): 15.4 µM (inactive)
GI50 (Malme-3M): 37.7 µM (inactive)
GI50 (NCI-H226): 47.1 µM (inactive)
GI50 (NCI-H23): 40.8 µM (inactive)
GI50 (NCI-H460): 26.4 µM (inactive)
GI50 (NCI-H522): 12.9 µM (inactive)
GI50 (NCI/ADR-RES): 30.1 µM (inactive)
GI50 (OVCAR-3): 14.7 µM (inactive)
GI50 (OVCAR-4): 19.4 µM (inactive)
GI50 (OVCAR-5): 38.1 µM (inactive)
GI50 (OVCAR-8): 22.6 µM (inactive)
GI50 (PC-3): 30.4 µM (inactive)
GI50 (RPMI-8226): 16.2 µM (inactive)
GI50 (RXF 393): 29.5 µM (inactive)
GI50 (SF-268): 22.6 µM (inactive)
GI50 (SF-295): 21.2 µM (inactive)
GI50 (SF-539): 20.7 µM (inactive)
GI50 (SK-MEL-28): 53.7 µM (inactive)
GI50 (SK-MEL-2): 17.3 µM (inactive)
GI50 (SK-MEL-5): 6.04 µM (inactive)
GI50 (SK-OV-3): 16.1 µM (inactive)
GI50 (SN12C): 53.7 µM (inactive)
GI50 (SNB-19): 39.4 µM (inactive)
GI50 (SNB-75): 2.06 µM (inactive)
GI50 (SR): 14.5 µM (inactive)
GI50 (T47D): 12.3 µM (inactive)
GI50 (TK-10): 26.8 µM (inactive)
GI50 (U-251): 24.8 µM (inactive)
GI50 (UACC-62): 17.9 µM (inactive)
GI50 (UO-31): 25.1 µM (inactive)

CC(=O)OC/C=C/[C@H](O[Si](C)(C)C(C)(C)C)[C@@H](O)/C=C/COC(C)=O
GI50 (786-0): > 100 µM (inactive)
GI50 (A498): > 100 µM (inactive)
GI50 (A549): > 100 µM (inactive)
GI50 (ACHN): > 100 µM (inactive)
GI50 (BT-549): > 100 µM (inactive)
GI50 (CAKI-1): > 100 µM (inactive)
GI50 (CCRF-CEM): 26 µM (inactive)
GI50 (COLO 205): > 100 µM (inactive)
GI50 (DU-145): > 100 µM (inactive)
GI50 (EKVX): > 100 µM (inactive)
GI50 (HCC 2998): > 100 µM (inactive)
GI50 (HCT-116): > 100 µM (inactive)
GI50 (HCT-15): > 100 µM
GI50 (HOP-62): > 100 µM (inactive)
GI50 (HOP-92): > 100 µM (inactive)
GI50 (HT-29): > 100 µM (inactive)
GI50 (Hs-578T): > 100 µM (inactive)
GI50 (IGROV-1): > 100 µM (inactive)
GI50 (K562): 23 µM (inactive)
GI50 (KM12): > 100 µM (inactive)
GI50 (LOX IMVI): 76.6 µM (inactive)
GI50 (M14): > 100 µM (inactive)
GI50 (MCF7): 49.5 µM (inactive)
GI50 (MDA-MB-231): > 100 µM (inactive)
GI50 (MDA-MB-435): > 100 µM (inactive)
GI50 (MDA-N): > 100 µM (inactive)
GI50 (MOLT-4): 23.7 µM (inactive)
GI50 (Malme-3M): > 100 µM (inactive)
GI50 (NCI-H226): > 100 µM (inactive)
GI50 (NCI-H23): > 100 µM (inactive)
GI50 (NCI-H460): > 100 µM (inactive)
GI50 (NCI-H522): > 100 µM (inactive)
GI50 (NCI/ADR-RES): > 100 µM (inactive)
GI50 (OVCAR-3): > 100 µM (inactive)
GI50 (OVCAR-4): > 100 µM (inactive)
GI50 (OVCAR-5): > 100 µM (inactive)
GI50 (OVCAR-8): > 100 µM (inactive)
GI50 (PC-3): > 100 µM (inactive)
GI50 (RPMI-8226): 20.6 µM (inactive)
GI50 (RXF 393): > 100 µM (inactive)
GI50 (SF-268): > 100 µM (inactive)
GI50 (SF-295): > 100 µM (inactive)
GI50 (SF-539): > 100 µM (inactive)
GI50 (SK-MEL-28): > 100 µM (inactive)
GI50 (SK-MEL-2): > 100 µM (inactive)
GI50 (SK-MEL-5): > 100 µM (inactive)
GI50 (SK-OV-3): > 100 µM (inactive)
GI50 (SN12C): > 100 µM (inactive)
GI50 (SNB-19): > 100 µM (inactive)
GI50 (SNB-75): 5.45 µM (inactive)
GI50 (SR): 30.4 µM (inactive)
GI50 (SW-620): > 100 µM (inactive)
GI50 (T47D): > 100 µM (inactive)
GI50 (TK-10): > 100 µM (inactive)
GI50 (U-251): > 100 µM (inactive)
GI50 (UACC-257): > 100 µM (inactive)
GI50 (UACC-62): > 100 µM (inactive)
GI50 (UO-31): > 100 µM (inactive)
